Results from patent US20040153145A1, “Fixation method for bioprostheses” (Clemson University, priority 2002, published 2004).

How the values were obtained:
[1] = Mass loss of fixed aortic wall after elastase digestion; parameters: species or system Porcine; conditions: for % Mass Loss: porcine aortic wall fixed 7 days, 8.5 Units pancreatic elastase, 2 days, 37° C.; for increase in resistance to elastase of aorta: versus fresh aortic wall (60% mass loss in 2 days)
Protocol: Porcine aorta fragments were collected from a local slaughterhouse and placed in ice-cold saline. The aorta fragments were fixed separately with GA, TA, and a combination of GA and TA as described below. Following fixation, the samples were treated with high concentrations of elastase to test resistance to enzymatic degradation.
(§1) Porcine aortic conduits were fixed for 7 days at room temperature in either:
0.6% GA in 50 mM Hepes buffered saline at pH 7.4 (GA);
0.3% TA in 50 mM Hepes buffered saline at pH 7.4 (TA); or
A mixture of 0.6% GA and 0.3% TA in 50 mM Hepes buffered saline at pH 7.4 (GA & TA).
After fixation, tissues were washed in normal saline followed by ddH2O and fragments of 4×4 mm were dissected and lyophilized. Tissue fragments from each group were weighed and incubated for 2 days (about 48 hours) at 37° C. with 8.5 Units of pancreatic elastase in elastase buffer (50 mM Tris, 1 mM CaCl2, 0.02% NaN3, pH 7.8). As positive controls, fresh, untreated tissues exposed to elastase solution were used. Tissue fragments were thoroughly rinsed in ddH2O, lyophilized and weighed. Mass loss due to enzyme digestion was calculated from the difference between tissue weight before and after incubation in elastase. Lower values of Mass Loss, set forth in Table 2 and FIG. 3, are indicative of better tissue preservation and improved putative protection of elastin from enzymatic degradation.

[2] = Thermal denaturation temperature (Td) of fixed pericardium by DSC; type: physicochemical, bovine; conditions: for Td after 24 hours / Td after 44 hours: bovine pericardium, +/− SEM, n = 6; for Td after 24 hours: fixation 24 hours; for Td after 44 hours: fixation 44 hours
Protocol: Collagen rich tissue was used as a model to test the possible interference of TA with GA-mediated fixation. Samples of bovine pericardium (tissue including about 85% collagen and 5-10% elastin) was fixed at room temperature in one of either: 1% TA in phosphate buffered saline at pH 7.4 for 24 and 44 hours (TA); 0.5% GA in phosphate buffered saline at pH 7.4 for 24 and 44 hours (GA); 0.5% GA in phosphate buffered saline at pH 7.4 for 60 minutes followed by 1% TA in phosphate buffered saline at pH 7.4 for 24 and 44 hours (GA/TA); or 1% TA in phosphate buffered saline at pH 7.4 for 60 minutes followed by 0.5% GA in phosphate buffered saline at pH 7.4 for 24 and 44 hours (TA/GA). After fixation, tissues were washed in normal saline and the extent of cross-linking was evaluated by analysis of the thermal denaturation temperature (Td). Td reflects that the temperature at which native collagen molecules unravel (around 65° C.) is increased in chemically cross-linked tissues. […]. In the case of connective tissues, Td represents the temperature at which native collagen molecules unravel. This process leads to protein denaturation and is recorded as a peak maximum (FIG. 1). […] Tissues (native, GA fixed, TA fixed, and GA/TA combination fixed, as described above) were rinsed in saline and 2 mm^2 samples were cut and hermetically sealed in Differential Scanning Calorimetry (DSC) aluminum pans. Samples were heated at a rate of 10° C./min, from 25° C. to 110° C. and the temperature of thermal denaturation (Td) for each sample was recorded on a Perkin Elmer DSC 7 machine.

[3] = Calcification of fixed aorta after subdermal implantation in juvenile rats; type: in vivo, Sprague-Dawley rats; conditions: porcine aorta, subdermal implant in juvenile rats, +/− SEM, n = 10
Protocol: Porcine aorta fragments were collected from a local slaughterhouse and placed in ice-cold saline. The aorta fragments were fixed with GA and separately with a combination of GA and TA as described below. Following fixation, samples were implanted subdermally in juvenile rats to test for calcification potential.
as §1
0.6% GA in 50 mM Hepes buffered saline at pH 7.4 (GA); or
a mixture of 0.6% GA and 0.3% TA in 50 mM Hepes buffered saline at pH 7.4 (GA & TA).
After fixation, tissues were washed in normal saline and fragments of 4×4 mm were tested for calcification by subdermal implantation in juvenile rats (the process used is described in detail by Bailey M, Xiao H, Ogle M, Vyavahare N., ‘Aluminum chloride pretreatment of elastin inhibits elastolysis by matrix metalloproteinases and leads to inhibition of elastin-oriented calcification,’ The American Journal of Pathology, 2001;159(6):1981-6, which is herein incorporated by reference). […]
At 7 and 21 days after implantation, rats were humanely euthanized, tissue samples explanted from their subdermal pouches, dried and analyzed for calcium content using atomic absorbtion spectrophotometry (as outlined in publication above). […]

pure elastin = test: Degradation of orcein-labeled pure elastin by elastase; type: biochemical; conditions: versus buffer control elastin, completely degraded
Protocol: Pure elastin labeled with orcein was used as a substrate for the enzyme elastase. The labeled elastin substrate was used per se, as well as labeled elastin fixed separately with glutaraldehyde (GA) and with tannic acid (TA).
Purified insoluble elastin labeled with orcein was treated for 24 hours at room temperature with one of:
0.6% GA in 50 mM Hepes buffered saline at pH 7.4 (GA-fixed elastin);
0.3% TA in 50 mM Hepes buffered saline at pH 7.4 (TA-fixed elastin); or
50 mM Hepes buffered saline at pH 7.4 (Buffer control).
Elastin samples were centrifuged at 3000 rpm for 10 minutes at room temperature, rinsed with double distilled (dd)H2O and dialyzed in ddH2O. Treated elastin was suspended in elastase buffer (50 mM Tris, 1 mM CaCl2, 0.02% NaN3, pH 7.8) at a concentration of 20 mg/ml. A blank of labeled elastin incubated in the absence of elastase was also prepared for comparison.
Pure pancreatic elastase was prepared at a concentration of 1 Unit/ml in elastase buffer (described above), mixed with treated elastin samples in a 1 to 1 ratio and incubated at 37° C. for 3 days. Samples were centrifuged and elastin degradation was assessed by measuring the presence of soluble orcein-labeled elastin peptides in supernatants, by measuring optical density at 570 nm.

Row | % Mass Loss [1] [%] | Td after 24 hours [2] | Td after 44 hours [2] | Td ([2]; pericardium, DSC 10° C./min, FIG. 1, fresh around 65° C.) [°C] | reduction of elastin degradation by elastase (pure elastin) [%] | SMILES | increase in resistance to elastase of aorta [1] | Calcium content after 7 days ([3]; 7 days) | Calcium content after 21 days ([3]; 21 days)
1 | 41.56 | 68.4 +/− 1.4 °C | 72.6 +/− 0.9 °C | – | – | O=C(OC[C@H]1O[C@@H](OC(=O)c2cc(O)c(O)c(OC(=O)c3cc(O)c(O)c(O)c3)c2)[C@H](OC(=O)c2cc(O)c(O)c(OC(=O)c3cc(O)c(O)c(O)c3)c2)[C@@H](OC(=O)c2cc(O)c(O)c(OC(=O)c3cc(O)c(O)c(O)c3)c2)[C@@H]1OC(=O)c1cc(O)c(O)c(OC(=O)c2cc(O)c(O)c(O)c2)c1)c1cc(O)c(O)c(OC(=O)c2cc(O)c(O)c(O)c2)c1 [TA, tannic acid] | about 20% | – | –
2 | 39.33 | 84.5 +/− 0.7 °C | 85.1 +/− 1.1 °C | 87 | 6.7 | O=CCCCC=O [GA, glutaraldehyde] | about 20% | 15.31 +/− 1.54 μg Ca/mg dry | 42.18 +/− 2.21 μg Ca/mg dry
